Among the data in patent US5650428A, “Arylsulfonamide derivative and pharmaceutical compositions and use thereof” (NKK Corporation, priority 1993, dated 1997) are IC50 values, retold here.

The assay concerns rat platelet. Nature of the assay: Inhibitory activity of aggregation in rat platelet. The assay is classed as cell-based. The following applies: rat platelet rich plasma, arachidonic acid (final concentration 0.5 mM) as inducer; read-out: C: Inhibitory activity of aggregation in rat platelet (IC50; μM). The method, then:
(3) Inhibitory Activity of Aggregation in Rat Platelet The abdomen of etherized rat was open, and blood was taken from the abdominal arteries, using a sodium citrate solution (final concentration was 0.38%). The blood was centrifuged at 1100 rpm for 10 minutes, and the supernatent was separated as the platelet rich plasma. The plasma was further centrifuged at 2000 rpm for 15 minutes to obtain the supernatent as a platelet poor plasma. The platelet rich plasma (280 μl) was placed in a measuring cuvette and preincubated for 1 minute at 37° C. Then, a sample solution (10 μl) was added. After 2 minutes, an arachidonic acid solution (final concentration=0.5 mM) (10 μl) was added as an inducer. The change in light transmission was recorded for 5 minutes.

Where a name gives a salt, the structure may show the parent alone.

Turning to `O=C(O)CCCNC(=O)C(COC1CCCCO1)NS(=O)(=O)c1ccc(Cl)cc1` (racemic) [Example 47, (RS)-N-(3-carboxypropyl)-2-(4-chlorobenzenesulfonylamino)-3-(tetrahydropyran-2-yloxy)propanamide], the IC50 was determined as 1.5 µM.
Consider `O=C(O)CCCCNC(=O)C(COC1CCCCO1)NS(=O)(=O)c1ccc(Cl)cc1` (racemic) [Example 48, (RS)-N-(4-carboxybutyl)-2-(4-chlorobenzenesulfonylamino)-3-(tetrahydropyran-2-yloxy)propanamide], for which the IC50 was determined as 1.7 µM.
With `O=C(O)CCCCCNC(=O)C(Cn1ccnc1)NS(=O)(=O)c1ccc(Cl)cc1` (racemic) [Example 100, (RS)-N-(5-carboxypentyl)-2-(4-chlorobenzenesulfonylamino)-3-(1H-imidazol-1-yl)propanamide hydrochloride], the IC50 came to 1.7 µM.
Next, `O=C(O)CCCCNC(=O)C(COc1cccnc1)NS(=O)(=O)c1ccc(Cl)cc1` (racemic) [Example 119, (RS)-N-(4-carboxybutyl)-2-(4-chlorobenzenesulfonylamino)-3-(pyridin-3-yloxy)propanamide hydrochloride]: 1.7 µM; `CCC(NS(=O)(=O)c1ccc(Cl)cc1)C(=O)Nc1ccc(CC(=O)O)cc1` (racemic) [Example 220, (RS)-N-(4-(carboxymethyl)phenyl)-2-(4-chlorobenzenesulfonylamino) butanamide]: 0.53 µM.
Consider `CCCC(NS(=O)(=O)c1ccc(Cl)cc1)C(=O)Nc1ccc(CC(=O)O)cc1` (racemic) [Example 221, (RS)-N-(4-(carboxymethyl)phenyl)-2-(4-chlorobenzenesulfonylamino)pentanamide], for which the concentration for half-maximal inhibition (IC50) stood at 0.53 µM.
For `CCCCC(NS(=O)(=O)c1ccc(Cl)cc1)C(=O)Nc1ccc(CC(=O)O)cc1` (racemic) [Example 222, (RS)-N-(4-(carboxymethyl)phenyl)-2-(4-chlorobenzenesulfonylamino)hexanamide], the concentration for half-maximal inhibition (IC50) was found to be 0.17 µM.
`CCCCCCC(NS(=O)(=O)c1ccc(Cl)cc1)C(=O)Nc1ccc(CC(=O)O)cc1` (racemic) [Example 230, (RS)-N-(4-(carboxymethyl)phenyl)-2-(4-chlorobenzenesulfonylamino)octanamide]: the IC50 amounted to 0.55 µM.
The same measure for `CC(C)C(NS(=O)(=O)c1ccc(Cl)cc1)C(=O)Nc1ccc(CC(=O)O)cc1` (racemic) [Example 231, (RS)-N-(4-(carboxymethyl)phenyl)-2-(4-chlorobenzenesulfonylamino)-3-methylbutanamide]: 1.7 µM; for `O=C(O)CCc1ccc(NC(=O)C(CC2CCCCC2)NS(=O)(=O)c2ccc(Cl)cc2)cc1` (racemic) [Example 261, (RS)-N-(4-(2-carboxyethyl)phenyl)-2-(4-chlorobenzenesulfonylamino)-3-cyclohexylpropanamide]: 2.3 µM.
As to `CCCC[C@H](NS(=O)(=O)c1ccc(Cl)cc1)C(=O)Nc1ccc(CCC(=O)O)cc1` [Example 225, (S)-N-(4-(2-carboxyethyl)phenyl)-2-(4-chlorobenzenesulfonylamino)hexanamide], the IC50 stood at 0.56 µM.
With `CCSCC[C@H](NS(=O)(=O)c1ccc(Cl)cc1)C(=O)Nc1ccc(CC(=O)O)cc1` [Example 243, (S)-N-(4-(carboxymethyl)phenyl)-2-(4-chlorobenzenesulfonylamino)-4-ethylthiobutanamide], the half-maximal inhibitory concentration (IC50) amounted to 0.17 µM.
Turning to `CCSCC[C@H](NS(=O)(=O)c1ccc(Br)cc1)C(=O)Nc1ccc(CC(=O)O)cc1` [Example 245, (S)-2-(4-bromobenzenesulfonylamino)-N-(4-(carboxymethyl)phenyl)-4-ethylthiobutanamide], the IC50 came out at 0.055 µM.
`O=C(O)c1ccc(NC(=O)[C@H](Cc2ccccc2)NS(=O)(=O)c2ccc(Br)cc2)cc1` [Example 256, (S)-2-(4-bromobenzenesulfonylamino)-N-(4-carboxyphenyl)-3-phenylpropanamide]: the IC50 amounted to 0.17 µM.
